Source: ChEMBL document CHEMBL1201862, “PubChem BioAssay data set” (2004)
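Compound exposure: 48 hours, 5 concentrations, 96-well plates. GI50 marks 50% less growth.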 The source made the active and inactive calls. Rule as the data show it: active = GI50 up to about 1.1 µM and inactive = higher.

Legend:
Assay in all cases: NCI anticancer screen, dose series, 48 h
786-0 = test system: 786-0
A498 = test system: A498
ACHN = test system: ACHN
CCRF-CEM = test system: CCRF-CEM
EKVX = test system: EKVX
M14 = test system: M14
OVCAR-3 = test system: OVCAR-3
SK-OV-3 = test system: SK-OV-3
SNB-75 = test system: SNB-75
U-251 = test system: U-251
OVCAR-5 = test system: OVCAR-5
SF-268 = test system: SF-268
SK-MEL-5 = test system: SK-MEL-5
NCI-H226 = test system: NCI-H226

Measured: GI50

CCOC(=O)C1=C(C)N(Cc2ccccc2)C(=O)C1CC#N (stereo unspecified)
inactive: 786-0 > 100 µM | A498 > 100 µM | ACHN > 100 µM | CCRF-CEM 31.6 µM | EKVX > 100 µM | M14 > 100 µM | OVCAR-3 > 100 µM | SK-OV-3 > 100 µM | SNB-75 55.2 µM | U-251 > 100 µM

Nc1ccc(C(=O)N/C(=C\c2ccc3c(c2)OCO3)c2nc3c(O)nc(S)nc3[nH]2)cc1
inactive: 786-0 > 100 µM | ACHN > 100 µM | CCRF-CEM > 100 µM | EKVX > 100 µM | M14 > 100 µM | OVCAR-3 > 100 µM | OVCAR-5 > 100 µM | SF-268 > 100 µM | SK-MEL-5 > 100 µM | SK-OV-3 > 100 µM | U-251 > 100 µM

CC[C@@H]1OC2(C)CC(S(=O)(=O)c3ccccc3)CC1O2 (stereo partly specified)
inactive: 786-0 > 100 µM | ACHN > 100 µM | CCRF-CEM > 100 µM | EKVX > 100 µM | M14 > 100 µM | NCI-H226 > 100 µM | OVCAR-3 > 100 µM | OVCAR-5 > 100 µM | SF-268 > 100 µM | SK-MEL-5 > 100 µM | SK-OV-3 > 100 µM | SNB-75 > 100 µM | U-251 > 100 µM

C/C(=C\c1ccccc1)C(=O)c1c(C)cc(C)cc1C
inactive: 786-0 > 100 µM | ACHN > 100 µM | CCRF-CEM > 100 µM | EKVX > 100 µM | M14 > 100 µM | NCI-H226 > 100 µM | OVCAR-3 > 100 µM | SF-268 > 100 µM | SK-MEL-5 > 100 µM | SK-OV-3 > 100 µM | SNB-75 > 100 µM | U-251 > 100 µM

OC1=CN=COc2ccccc21
inactive: 786-0 > 100 µM | A498 > 100 µM | ACHN > 100 µM | CCRF-CEM > 100 µM | EKVX > 100 µM | M14 > 100 µM | OVCAR-3 > 100 µM | SF-268 > 100 µM | SK-OV-3 50.6 µM | SNB-75 32.3 µM | U-251 > 100 µM

COC1C2c3cc4c(cc3CC(C#N)(c3ccccc32)N1C(=O)c1ccccc1)OCO4 (stereo unspecified)
inactive: 786-0 > 100 µM | ACHN > 100 µM | CCRF-CEM > 100 µM | EKVX > 100 µM | M14 > 100 µM | NCI-H226 93.3 µM | OVCAR-3 > 100 µM | OVCAR-5 > 100 µM | SF-268 > 100 µM | SK-MEL-5 33 µM | SK-OV-3 > 100 µM | SNB-75 > 100 µM | U-251 > 100 µM

CC(=O)N(C(C)=O)c1c(N)n(C)c(=O)[nH]c1=O
inactive: 786-0 > 100 µM | A498 > 100 µM | ACHN > 100 µM | CCRF-CEM > 100 µM | EKVX > 100 µM | M14 > 100 µM | NCI-H226 > 100 µM | OVCAR-3 > 100 µM | OVCAR-5 > 100 µM | SF-268 > 100 µM | SK-MEL-5 > 100 µM

Nc1ccc(Nc2nc(F)nc(-c3c4ccccc4c4n3CCS4)n2)cc1
inactive: 786-0 15.7 µM | ACHN 12.7 µM | CCRF-CEM 6.56 µM | EKVX 18.1 µM | M14 17 µM | NCI-H226 11.6 µM | OVCAR-3 19.3 µM | OVCAR-5 17.6 µM | SF-268 15.7 µM | SK-MEL-5 13.1 µM | SK-OV-3 15.3 µM | SNB-75 14.9 µM | U-251 14.7 µM

COCC(C)(C)/N=C/N1Cc2cc3ccccc3nc2C1
inactive: 786-0 > 100 µM | ACHN > 100 µM | CCRF-CEM > 100 µM | EKVX > 100 µM | M14 > 100 µM | NCI-H226 > 100 µM | OVCAR-3 75.5 µM | SF-268 > 100 µM | SK-MEL-5 > 100 µM | SK-OV-3 > 100 µM | SNB-75 > 100 µM | U-251 > 100 µM
